Test results reported in ChEMBL document CHEMBL1201862, “PubChem BioAssay data set” (2004).
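Assay format: 96-well plates, 48-hour exposure. Abbreviation: GI50, concentration required for 50% inhibition of growth.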 Calls of active or inactive are those of the source. Cut-off read from the data, not from the text of the source: active = GI50 up to about 1.1 µM and inactive = higher.

Legend:
Assay in all cases: NCI-60 cell line screen, 48 h
A549 = tested on: A549
ACHN = tested on: ACHN
DU-145 = tested on: DU-145
HCC 2998 = tested on: HCC 2998
HOP-92 = tested on: HOP-92
K562 = tested on: K562
LOX IMVI = tested on: LOX IMVI
MDA-MB-435 = tested on: MDA-MB-435
Malme-3M = tested on: Malme-3M
OVCAR-3 = tested on: OVCAR-3
OVCAR-5 = tested on: OVCAR-5
OVCAR-8 = tested on: OVCAR-8
RXF 393 = tested on: RXF 393
SK-MEL-28 = tested on: SK-MEL-28
T47D = tested on: T47D
U-251 = tested on: U-251
UACC-62 = tested on: UACC-62
UO-31 = tested on: UO-31
CAKI-1 = tested on: CAKI-1
EKVX = tested on: EKVX

SMILES	GI50 (A549)	GI50 (ACHN)	GI50 (DU-145)	GI50 (HCC 2998)	GI50 (HOP-92)	GI50 (K562)	GI50 (LOX IMVI)	GI50 (MDA-MB-435)	GI50 (Malme-3M)	GI50 (OVCAR-3)	GI50 (OVCAR-5)	GI50 (OVCAR-8)	GI50 (RXF 393)	GI50 (SK-MEL-28)	GI50 (T47D)	GI50 (U-251)	GI50 (UACC-62)	GI50 (UO-31)	GI50 (CAKI-1)	GI50 (EKVX)
CN1CCN(C(=S)N(C(=O)c2ccco2)C2CCCCC2)CC1	> 100 µM (inactive)	> 100 µM (inactive)	> 100 µM (inactive)	> 100 µM (inactive)	> 100 µM (inactive)	> 100 µM (inactive)	> 100 µM (inactive)	> 100 µM (inactive)	> 100 µM (inactive)	> 100 µM (inactive)	> 100 µM (inactive)	> 100 µM (inactive)	> 100 µM (inactive)	> 100 µM (inactive)	> 100 µM (inactive)	> 100 µM (inactive)	> 100 µM (inactive)	> 100 µM (inactive)		
CCN(CCCl)c1cc(CN(C)C)cc(NC(=O)c2ccc(C(=O)Nc3cccc(CN(C)C)c3)cc2)c1	2.2 µM (inactive)	2.94 µM (inactive)	3.74 µM (inactive)	1.26 µM (inactive)	0.512 µM (active)	0.321 µM (active)	0.201 µM (active)	0.238 µM (active)	1.31 µM (inactive)		10.6 µM (inactive)	0.889 µM (active)	0.247 µM (active)	2.07 µM (inactive)	1.91 µM (inactive)	0.225 µM (active)	1.27 µM (inactive)	27.7 µM (inactive)	32.6 µM (inactive)	
C[C@]12CC[C@H]3[C@@H](CCC4=CC(=O)CC[C@@H]43)[C@@H]1CC[C@]2(O)C(N)=O	> 100 µM (inactive)	> 100 µM (inactive)	> 100 µM (inactive)	> 100 µM (inactive)	> 100 µM (inactive)	> 100 µM (inactive)	> 100 µM (inactive)	> 100 µM (inactive)	> 100 µM (inactive)	> 100 µM (inactive)	> 100 µM (inactive)	> 100 µM (inactive)	> 100 µM (inactive)	> 100 µM (inactive)	> 100 µM (inactive)	> 100 µM (inactive)	> 100 µM (inactive)	> 100 µM (inactive)		> 100 µM (inactive)
CCC(=O)COc1ccc(NC(NC(=O)C(C(F)(F)F)C(F)(F)F)(C(F)(F)F)C(F)(F)F)cc1	54.5 µM (inactive)	33.5 µM (inactive)	22.2 µM (inactive)	> 100 µM (inactive)	39.1 µM (inactive)		28.6 µM (inactive)	42.7 µM (inactive)	27 µM (inactive)	94 µM (inactive)	46.8 µM (inactive)	23.9 µM (inactive)	18.6 µM (inactive)	59.4 µM (inactive)	20.6 µM (inactive)	46.7 µM (inactive)		39.8 µM (inactive)	36.1 µM (inactive)	49.2 µM (inactive)
O=C1CC(c2ccccc2Cl)C2(C(=O)NC(=S)NC2=O)C(c2ccccc2Cl)C1 (stereo not given)	20.8 µM (inactive)	24.8 µM (inactive)	34 µM (inactive)	27 µM (inactive)	0.284 µM (active)	37.2 µM (inactive)	16.9 µM (inactive)	14.3 µM (inactive)	1.56 µM (inactive)	26.5 µM (inactive)	42.1 µM (inactive)	23 µM (inactive)	16.9 µM (inactive)	49 µM (inactive)	45.6 µM (inactive)	15.3 µM (inactive)	19.8 µM (inactive)	46.5 µM (inactive)		37.6 µM (inactive)
CC1=CC(C)(C)NN1C1=NS(=O)(=O)c2ccccc2N1C	> 100 µM (inactive)	> 100 µM (inactive)	> 100 µM (inactive)	> 100 µM (inactive)	> 100 µM (inactive)	> 100 µM (inactive)	> 100 µM (inactive)	> 100 µM (inactive)		> 100 µM (inactive)	> 100 µM (inactive)	> 100 µM (inactive)	> 100 µM (inactive)	> 100 µM (inactive)	> 100 µM (inactive)	> 100 µM (inactive)	> 100 µM (inactive)	78.3 µM (inactive)	> 100 µM (inactive)	> 100 µM (inactive)
CNC1C(OC2C(OC3C(O)C(O)C(O)C(O)C3O)OC(C)C2(O)CO)OC(CO)C(O)C1O.N=C(N)N.NC(=O)O (stereo not given)	> 100 µM (inactive)	> 100 µM (inactive)	> 100 µM (inactive)	> 100 µM (inactive)	> 100 µM (inactive)	> 100 µM (inactive)	> 100 µM (inactive)	> 100 µM (inactive)	> 100 µM (inactive)	> 100 µM (inactive)	> 100 µM (inactive)	> 100 µM (inactive)	> 100 µM (inactive)	> 100 µM (inactive)	> 100 µM (inactive)	> 100 µM (inactive)	> 100 µM (inactive)	> 100 µM (inactive)		> 100 µM (inactive)
